Series [1] deals with Crise pentétrazolique. As to the kind of experiment: Pentetrazol seizure test (Crise pentétrazolique). The class given is in vivo, souris. As to conditions: mice, 15 minutes after administration of pentetrazol; for ED50: Mus musculus, po, 0.25 h, read-out: DE50 (the source's name). The protocol:
Ce test, pratiqué sur souris par voie orale, est identique à celui décrit dans le brevet français N° 2.276.036.
Les DE50 obtenues 15 minutes après l'administration du pentécra- zol sont reprises ci-dessous comparativement aux résultats trouvés pour les sels de sodium correspondants : [drawing 12]

The subject of series [2] is Anoxie par confinement. As to the kind of experiment: Anoxia by confinement (Anoxie par confinement). It counts as in vivo, souris. As to conditions: for % d'augmentation du temps de survie: male mice, 75 mg/kg intraperitoneal, versus controls. The protocol: Des lots de 15 souris mâles sont traités au moyen d'une dose de composé à étudier puis chaque animal est placé dans une enceinte hermétiquement close de 200 cm^3. L'animal est considéré comme mort au moment de l'arrêt respiratoire.
On détermine alors le % d'augmentation du temps de survie par rapport à des témoins.
On trouvera ci-dessous des résultats obtenus avec des composés de l'invention à la dose de 75 mg/kg par voie intrapéritonéale : [drawing 14]

The test system of series [3] is Crise à l'acide β-mercaptopropionique. As to the kind of experiment: β-mercaptopropionic acid seizure test (Crise à l'acide β-mercaptopropionique). As to conditions: for ED50: Mus musculus, po. The class given is in vivo, souris. The protocol:
L'acide p-mercaptopropionique est un inhibiteur de la glutamate décarboxylase (G.A.D.), enzyme qui catalyse la transformation du glutamate en acide y-aminobutyrique (GABA). Son action se traduit donc par un abaissement du taux de GABA et la survenue de crises généralisées tonico-cloniques 3 à 4 minutes après son administration.
L'acide β-mercaptopropionique a été administré à des lots de 10 souris mâles, par voie intrapéritonéale, à la dose de 70 mg/kg, 30 minutes après l'administration orale d'une dose du composé à étudier. On note le pourcentage des animaux protégés contre la crise tonique 15 minutes après l'administration de l'acide β-mercaptopropionique.

Series [4] is described as follows: Solubility and pH of aqueous solution. It counts as physicochemical. As to conditions: for solubility: water.
For series [5], the system named is souris. The series can be described thus: Acute toxicity (toxicité aiguë). It counts as in vivo. As to conditions: mice, 1000 mg/kg oral. How it is done: (§1) Des tests de toxicité aiguë pratiqués sur souris ont montré qu'à la dose de 1000 mg/kg, par voie orale, la mortalité provoquée par le n-propyl-3 hexanoate de magnésium et le n-propyl-3 hexanamide est respectivement de 40% et 0%.
(§2) A titre de comparaison, le n-propyl-3 hexanoate de sodium à la dose de 1000 mg/kg par voie orale provoque déjà 80% de mortalité.

Series [6] in a line: Acute toxicity (toxicité aiguë). It counts as in vivo. As to conditions: mouse, in vivo, po, 1000 mg/kg, mice, 1000 mg/kg oral; read-out: mortalité. The protocol: as §1, §2
Series [7] relates to activité anticonvulsivante. As to the kind of experiment: Pharmacological studies of anticonvulsant activity (method not specified). As to conditions: at identical doses, compared with di-n-propylacétate de sodium. It counts as in vivo.
The mark [8] stands for this setting: male mice, compound oral 30 minutes before β-mercaptopropionic acid 70 mg/kg i.p., protection against tonic seizure 15 minutes after, read-out: DE50 (the source's name).
Setting [9] is: male mice, compound oral 30 minutes before β-mercaptopropionic acid 70 mg/kg i.p., protection against tonic seizure 15 minutes after.

Molecules are shown by their SMILES. Converted amounts (≈) assume the structure as drawn. Where two headings read alike, the source gives them in different places.

With `CCCC(CCC)CCC(N)=O` [Y=NH2, n=1, n-propyl-4 heptanamide], the ED50 in series [1] turned out to be 104 mg/kg. Besides, the “% d'augmentation du temps de survie” value in series [2] is reported as 15%.

Turning to `CCCC(CCC)CCCC(N)=O` [Y=NH2, n=2, n-propyl-5 octanamide], the ED50 in series [3] (setting [8]) came out at 129 mg/kg; in series [1], 121 mg/kg. Moreover, the “% d'augmentation du temps de survie” value in series [2] is on record as 64%.

Take `CCCC(CCC)CC(=O)O` [Y=OMg1/2, n=0, n-propyl-3 hexanoate de magnésium]: in series [3] (setting [9]), the DE50 amounted to 145 mg/kg. Also, the pH in series [4] (2% aqueous solution, slightly opalescent) is listed as 9,4. This compound also displayed a mortalité in series [5] of 40%. The “% d'augmentation du temps de survie” value in series [2] came to 36%.

As to `CCCC(CCC)CC(N)=O` [Y=NH2, n=0, n-propyl-3 hexanamide], the ED50 was 106 mg/kg in series [3] (setting [8]) and 65 mg/kg in series [1]. For the same compound, in series [6], the mortality came to 0%.

With `CCCC(CCC)CCCC(=O)O` [Y=ONa, n=2, reference compound], the ED50 in series [1] is 172 mg/kg.

As to `CCCC(CCC)CCC(=O)O` [Y=ONa, n=1, reference compound], the ED50 in series [3] (setting [8]) was determined as 124 mg/kg; in series [1] it was 119 mg/kg.

On to `CCCC(CCC)CCCC(=O)O` [Y=OMg1/2, n=2, n-Propyl-5 octanoate de magnésium], for which the DE50 in series [3] (setting [9]) is reported as 124 mg/kg; in series [1] (oral route, 15 min) it was 152 mg/kg. The “solubilité dans les solvants organiques” value in series [4] (organic solvents) is on record as “Bonne solubilité”. Also, the solubility in series [4] (read-out: Solubilité dans l'eau) came to 1 mg/mL (≈ 5.37 mM). In addition, in series [2], the “% d'augmentation du temps de survie” value was 56%.

Regarding `CCCC(CCC)C(=O)O` [di-n-propylacétate de sodium, reference compound], in series [3] (read-out: DE50), the ED50 stood at 175 mg/kg. Further, the “augmentation du temps de survie” value in series [2] (200 mg/kg intraperitoneal, comparative test) turned out to be 32%.

Regarding `CCCC(CCC)CC(=O)O` [Y=ONa, n=0, n-propyl-3 hexanoate de sodium, reference compound], the ED50 in series [3] (setting [8]) worked out at 168 mg/kg; in series [1] it was 95 mg/kg. Moreover, the mortalité in series [5] stood at 80%.

For the compound `CCCC(CCC)CCC(=O)O` [Y=OCa1/2, n=1, n-propyl-4 heptanoate de calcium], in series [3] (setting [9]), the DE50 is recorded as 101 mg/kg. For the same compound, the solubility in series [4] (dissolves very slowly, read-out: se dissout dans l'eau) came out at 1000 mg/mL. For the same compound, the “% d'augmentation du temps de survie” value in series [2] was 27%.

In the case of `CCCC(CCC)C(=O)O` [sel de calcium], in series [7], the potentialités anticonvulsivantes result was “sensiblement équivalentes à celles du di-n-propylacétate de sodium et même légèrement inférieures”.

(Values after patent EP0005422A2, “Derivatives of omega-dialkylalkanoic acids, processes for their preparation and their therapeutical use” (SANOFI S.A., priority 1978, dated 1979).)
